Experimental data from PubChem BioAssay (NCI).
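All cell lines were grown in 96-well plates and treated with compound for 48 hours. Here, GI50 denotes the concentration required for 50% inhibition of growth. TGI: concentration producing complete growth inhibition.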

Experiments:
Assay in all cases: NCI tumour cell line growth inhibition, 48 h
[1] = test system: OVCAR-4 ovarian
[2] = test system: HCT-15 colon
[3] = test system: KM12 colon
[4] = test system: U251 CNS
[5] = test system: SK-MEL-28 melanoma
[6] = test system: NCI-H23 lung
[7] = test system: UO-31 renal
[8] = test system: HOP-62 NSCLC
[9] = test system: RXF 393 renal
[10] = test system: HCT-116 colon

Row | Structure (SMILES) | GI50 [1] [µM] | TGI [1] [µM] | GI50 [2] [µM] | TGI [2] [µM] | GI50 [3] [µM] | TGI [3] [µM] | GI50 [4] [µM] | TGI [4] [µM] | GI50 [5] [µM] | TGI [5] [µM] | GI50 [6] [µM] | TGI [6] [µM] | GI50 [7] [µM] | TGI [7] [µM] | GI50 [8] [µM] | TGI [8] [µM] | GI50 [9] [µM] | TGI [9] [µM] | GI50 [10] [µM] | TGI [10] [µM]
1 | N#C/C(=C/c1cccs1)c1cccs1 | > 100 | > 100 | > 100 | > 100 | > 100 | > 100 | > 100 | > 100 | > 100 | > 100 | > 100 | > 100 | > 100 | > 100 | > 100 | > 100 | 38 | > 100 | > 100 | > 100
2 | COc1ncnc2c1ncn2C/C(Br)=C(\Br)CCl | 1.61 | 3.02 | 1.84 | 4.16 | 3.54 | 13.4 | 1.74 | 3.64 | 2.62 | 8.62 | 3.16 | 11.4 | 2.41 | 10.6 | 3.9 | 14.1 | 1.64 | 3.06 | 1.73 | 3.49
3 | COc1cc(C)c(N(C)C(=O)CN(C)C)cc1Nc1nc(Nc2cccc(F)c2C(N)=O)c2cc[nH]c2n1 | > 25 | > 25 | > 25 | > 25 | > 25 | > 25 | > 25 | > 25 | > 25 | > 25 | > 25 | > 25 | 9.26 | > 25 | > 25 | > 25 | 20.5 | > 25 | 15.7 | > 25
4 | CO/N=C(\COc1ccc2c(=O)cc(-c3ccccc3)oc2c1)c1ccc(OC)cc1 | 56.2 | > 100 | > 100 | > 100 | 81.4 | > 100 | > 100 | > 100 | > 100 | > 100 | > 100 | > 100 | > 100 | > 100 | > 100 | > 100 | > 100 | > 100 | > 100 | > 100
5 | COc1cc2c3c(n(CCCn4cccn4)c(=O)c2cc1OC)-c1cc2c(cc1C3=O)OCO2 | 19.7 | 66.1 | 14.7 | > 100 | 5.11 | > 54.5 | 0.724 | > 40.4 | 5.35 | > 100 | 0.807 | 4.38 | 0.962 | 18.1 | 0.449 | 11.1 | 5.76 | 27.7 | 1.47 | 15.9
6 | Cn1c(-c2c(N)n(Cc3ccc(Cl)cc3)c3nc(C#N)c(C#N)nc23)nc2ccccc21 | 3.89 | 18.6 | 4.55 | > 50 | 2.76 | 32.2 | 3.76 | 13 | 2.86 | 13.9 | 1.18 | 2.48 | 5.35 | 13.2 | 11.7 | > 50 | 0.567 | 4.67 | 8.52 | > 50
7 | O=C(O)C1(C(=O)O)CCN(S(=O)(=O)c2ccccc2)CC1 | – | > 100 | – | > 100 | – | > 100 | – | > 100 | – | > 100 | – | > 100 | – | > 100 | – | > 100 | – | > 100 | – | > 100
8 | CN(C)c1ccc2c(SCC(=O)OCC(=O)[C@@]3(O)CC[C@H]4[C@@H]5CCC6=CC(=O)C=C[C@]6(C)[C@H]5C(=O)C[C@@]43C)c3ccc(N(C)C)cc3nc2c1 | – | > 72.1 | – | 32.1 | – | > 100 | – | > 100 | – | > 76.1 | – | 64.9 | – | 24.8 | – | > 100 | – | > 57 | – | > 100
9 | CCOc1ccc2c(-c3ccnc(Nc4cccc(C(F)(F)F)c4)n3)cnn2n1 | 9.46 | > 25 | > 23.8 | > 25 | 5.07 | 14 | 6.43 | > 22.5 | > 25 | > 25 | 6.97 | > 20 | > 25 | > 25 | > 21 | > 25 | 14.2 | > 25 | 6.04 | 15.2
10 | CN1CCN(c2ccc(NC3=C(Cl)C(=O)c4ncccc4C3=O)cc2C(F)(F)F)CC1 | 1.09 | 2.31 | 1.39 | 3 | 14.4 | 30.1 | 4.45 | 17 | 1.99 | 3.45 | 1.87 | 3.87 | 1.5 | 2.82 | 17.4 | 37.1 | 1.52 | 2.91 | 1.69 | 3.27
11 | COc1ccc(-n2nc(C)c3c(Nc4ccc(NC(=O)Nc5cc(C(F)(F)F)ccc5F)cc4)ncnc32)cc1 | 2.83 | > 100 | 2.3 | 6.31 | 2.55 | 7.32 | 1.77 | 4.03 | 2.51 | 6.29 | 2.22 | 6.71 | 1.79 | 7.04 | 2.97 | 11.4 | 1.09 | 2.82 | 2.81 | 10.3
12 | CC(C)(C)OC(=O)N(CCCn1c2c(c3ccccc3c1=O)C(=O)c1ccccc1-2)CCN(CCCn1c2c(c3ccccc3c1=O)C(=O)c1ccccc1-2)C(=O)OC(C)(C)C | > 50 | > 50 | 24.2 | > 50 | > 50 | > 50 | 15.5 | > 50 | 37 | > 50 | > 50 | > 50 | > 50 | > 50 | 19.8 | > 50 | 12.6 | > 50 | 14.1 | > 50
13 | O=C(Oc1ccccc1Cl)c1cccnc1Nc1ccnc(C(F)(F)F)c1 | 27.8 | 95.8 | 14.6 | 29.1 | 14.4 | 32.6 | 17.6 | 32.9 | 20.4 | 46.8 | 8.79 | 23.7 | 14.6 | 32.6 | 19 | 37 | 19.1 | 42.6 | 2.13 | 4.35
14 | COc1ccc(/C=C2/CCOC2=O)cc1 | > 100 | > 100 | > 100 | > 100 | > 100 | > 100 | > 100 | > 100 | > 100 | > 100 | > 100 | > 100 | 49.8 | > 100 | > 100 | > 100 | > 100 | > 100 | > 100 | > 100
15 | C=CC1(C)/C(=N\O)C(C)(CC)C(=O)N1O (centres undefined) | – | > 100 | – | > 100 | – | > 100 | – | > 100 | – | > 100 | – | > 100 | – | > 100 | – | > 100 | – | > 100 | – | > 100
16 | CN1CCN(c2ccc3nc(-c4ccc5nc(-c6ccc(C(F)(F)F)cc6)[nH]c5c4)[nH]c3c2)CC1 | 1.74 | 3.45 | 7.48 | 24.5 | 1.74 | 3.27 | 1.62 | 3.04 | 1.77 | 3.34 | 1.71 | 3.5 | 12.5 | 28 | 1.63 | 3.42 | 1.53 | 3.12 | 1.28 | 2.6
17 | CC(C)c1cccc2sc(NC(=O)C(=O)CC(=O)c3ccc(F)cc3)nc12 | – | > 100 | – | > 100 | – | > 100 | – | > 100 | – | > 100 | – | > 100 | – | > 100 | – | > 100 | – | > 100 | – | > 100
18 | CC(C)(C)c1ccc(NC(=O)c2cc(=O)c3ccccc3[nH]2)c(C(C)(C)C)c1O | 4.18 | 15.7 | 4.32 | 15.5 | 3.13 | 8.53 | 3.59 | 12.9 | 12.8 | 26 | 3.33 | 14.1 | 5.15 | 17.5 | 12.5 | 25.3 | 2.31 | 5.16 | 3.71 | 13.4
19 | C/C(=C\c1ccccc1)C(O)S(=O)(=O)O (centres undefined) | – | > 100 | – | > 100 | – | > 100 | – | > 100 | – | > 100 | – | > 100 | – | > 100 | – | > 100 | – | > 100 | – | > 100
20 | CCCCCCCCOC(=O)c1cc(O)c(O)c(O)c1 | 2.63 | > 100 | 1.57 | 18.3 | 2.9 | 17.4 | 3.02 | 28.6 | 7.19 | 29.6 | 2.63 | 11.5 | 0.279 | 2.9 | 4.77 | 20 | 5.45 | 22 | 1.97 | 12.9
21 | COc1cccc(C(=O)O)c1Cc1cccc2ccccc12 | – | > 100 | – | > 100 | – | > 100 | – | > 100 | – | > 100 | – | > 100 | – | > 100 | – | > 100 | – | > 100 | – | > 100
22 | COc1ccc(CNCCCN2C(=O)c3ccc4c5c(ccc(c35)C2=O)C(=O)N(CCCNCCCCNCCCN)C4=O)c(OC)c1OC | 1.02 | 3.08 | 2.76 | 7.94 | 1.27 | 7.53 | 0.63 | 2.97 | 1.89 | 4.81 | 1.35 | 4.22 | 4.84 | > 100 | 1.4 | 8.97 | 1.36 | 3.67 | 0.534 | 3.77
23 | C[C@]1(O)CC(=O)[C@]2(O)C3=C(C=C[C@]2(O)C1)C(=O)c1c(O)cccc1C3=O | 1.44 | 2.79 | 1.19 | 3.08 | 14 | 40.7 | 6.02 | 21.5 | 2.11 | 4.25 | 1.94 | 4.71 | 1.23 | 2.52 | 15.6 | 42.6 | 1.46 | 2.85 | 0.649 | 2.56
24 | COc1cc(C(C)c2cc3c(cc2OCCOCCOc2cc4c(cc2C(C)c2cc(OC)c(OC)c(OC)c2)OCO4)OCO3)cc(OC)c1OC (centres undefined) | > 100 | > 100 | – | > 10 | > 100 | > 100 | > 100 | > 100 | > 100 | > 100 | > 100 | > 100 | > 10 | > 100 | > 100 | > 100 | > 100 | > 100 | > 100 | > 100
25 | S=C1SC2(CCCCCC2)NC2=C1CCCCC2 | – | > 100 | – | > 100 | – | > 100 | – | > 100 | – | > 100 | – | > 100 | – | 60.1 | – | > 100 | – | > 100 | – | > 100
26 | O=C(O/N=C1/CCC/C1=C\c1ccccc1)c1ccc(Cl)cc1 | – | 58.7 | – | > 100 | – | > 100 | – | > 89.8 | – | > 100 | – | > 95.3 | – | > 100 | – | > 89.6 | – | > 31.6 | – | > 100
27 | O=C1c2ccccc2C(=O)c2c1c(NCCNCCO)c1cc[nH]c1c2NCCNCCO | 14.2 | 45.2 | > 70.9 | > 100 | 4.34 | > 39.9 | 0.739 | 19.7 | 3.27 | 20.5 | 7.9 | > 27.9 | 62.9 | > 100 | 2.6 | > 22.2 | 2.59 | 13.2 | 1.27 | > 21.5
28 | Nc1nc(N)c2ncn(Cc3c(Cl)cccc3Cl)c2n1 | – | > 100 | – | > 100 | – | > 100 | – | > 100 | – | > 100 | – | > 100 | – | > 100 | – | > 100 | – | > 100 | – | > 100
